Experimental data published in patent US12606540B2, “Triazolone compound” (MEDSHINE DISCOVERY INC., priority 2020, dated 2026).
Read-outs that look alike come from different tables or passages of the source.

Key:
[1] = Pharmacokinetic evaluation in mice (IV and PO); format: in vivo, female Balb/c mice; details: for MRT last: read-out: MRT0-last
Procedure: Experiment process: 0.04 mg/mL of a clarified solution of the test compound in 5% DMSO/10% Solutol solution/85% water was injected into female Balb/c mice (overnight fasting, 7-9 weeks of age) via tail vein, with dosage of 0.2 mg/kg. 0.1 mg/mL of the test compound in 5% DMSO/10% Solutol solution/0.2% Tween80/84.8% water was administered by gavage to female Balb/c mice (overnight fasting, 7-9 weeks of age), with dosage of 1 mg/kg. About 30 μL of blood was collected from the jugular vein at 0.0833, 0.25, 0.5, 1.0, 2.0, 4.0, 8.0, 10 and 24 h and from the tail vein at 0.25, 0.5, 1.0, 2.0, 4.0, 8.0 and 24 h after administration for both groups of animals, and were placed in anticoagulation tubes with EDTA-K2, and the blood was separated by centrifugation to obtain plasma. Plasma concentrations were detected by LC-MS/MS, and relevant pharmacokinetic parameters were calculated using WinNonlin™ Version 6.3 (Pharsight, Mountain View, CA) pharmacokinetic software with a non-compartmental model linear logarithmic trapezoid method.

[2] = test system: MDR1 (P-glycoprotein); assay: Permeability evaluation on MDR1-MDCK II cell line; details: dog, MDCK-MDR1, pH 7.4
[3] = molecular target: DHODH enzyme (Homo sapiens, UniProt Q02127); assay: DHODH enzyme inhibitory activity in vitro (resazurin fluorescence); format: biochemical; details: 5 nM DHODH, 15 μM L-DHO, 80 μM Resazurin
Description: The DHODH inhibitory activity of the compounds was detected by the following experimental method, and the experimental results are as shown in Table 1.
DHODH uses flavin mononucleotide FMN to catalyze the oxidation of dihydrooratic acid DHO to produce oratic acid, while the re-oxidation of FMN requires the participation of coenzyme CoQ. In the experiment of detecting the DHODH enzyme activity, CoQ was replaced by Resazurin dye as the final electron acceptor in the enzyme activity reaction. Resazurin solution is blue, and the resorufin generated after reduction has red fluorescence, and the fluorescence signal can be detected under the 535 nm of excitation wavelength and the 590 nm of emission wavelength. The components of the reaction buffer used in the experiment were 100 mM Hepes pH 7.0, 150 mM NaCl, 0.3% CHAPS, 0.5 mg/mL BSA, 0.1 μM FMN and 1% DMSO. The final concentration of DHODH enzyme in the reaction system was 5 nM, and the final concentration of substrate L-DHO was 15 μM, the final concentration of indicator Resazurin was 80 μM. The components of the reaction stop buffer were 100 mM Hepes pH 7.0 and 5 mM Orotate. The specific method was as follows: 2-fold final concentration of the DHODH enzyme solution was mixed with the compound, incubated at room temperature for 20 min, 2-fold final concentration of the substrate mixture solution of L-DHO and resazurin was added and reacted, incubated at room temperature away from light for 45 min. Then the reaction was stopped by adding 2-fold final concentration of the reaction stop buffer to the reaction system, and incubated at room temperature for 10 min, the fluorescence signal of the reaction system was detected with EnVision under the condition of Ex/Em=535/590 nm.

[4] = molecular target: T1, ALK(h) (Homo sapiens, UniProt Q9UM73); assay: Eurofins KinaseProfiler kinase selectivity; format: biochemical; details: compound at 1 μM; ATP 200 μM; read-out: Residual enzyme activity
T1 construct: purchased Eurofins (KinaseProfiler platform)
Procedure: (§1) This experiment aims to study the activity and selectivity of the compounds towards kinases selected from the Eurofins KinaseProfiler™ platform. The compounds against each selected kinase were tested using the KinaseProfiler™ experimental procedure of Eurofins standard, which follows the relevant standard operating procedures. Protein kinases (except ATM(h) and DNA-PK(h)) were tested by […], while lipid kinases, ATM(h), ATR/ATRIP(h) and DNA-PK(h) were tested by HRTF®.
(§2) Compound powders were prepared into 10 mM mother liquor through 100% DMSO solution and then diluted to 50× liquid.
(§3) An appropriate amount of 50× storage solution of the test compound was taken into the test wells, and then the kinase and substrate were added and mixed well. A certain concentration of ATP was added to start the reaction.
(§4) Data were processed using custom in-house analysis software.
(§5) The kinase off-target study in vitro of compound 5 of the present disclosure was carried out to evaluate the inhibitory activity against 15 common kinases at a concentration of 1 μM of the drug, and the results are as shown in Table 6.

[5] = molecular target: T2, GSK3β(h) (Homo sapiens, UniProt P49841); assay: Eurofins KinaseProfiler kinase selectivity; format: biochemical; details: compound at 1 μM; ATP 15 μM; read-out: Residual enzyme activity
T2 construct: purchased Eurofins (KinaseProfiler platform)
Procedure: as §1, §2, §3, §4, §5

[6] = female, Balb/c, mouse, plasma, IV 0.2 mg/kg
[7] = female, Balb/c, mouse, plasma, PO 1 mg/kg

T1 sequence (Q9UM73 19-1620): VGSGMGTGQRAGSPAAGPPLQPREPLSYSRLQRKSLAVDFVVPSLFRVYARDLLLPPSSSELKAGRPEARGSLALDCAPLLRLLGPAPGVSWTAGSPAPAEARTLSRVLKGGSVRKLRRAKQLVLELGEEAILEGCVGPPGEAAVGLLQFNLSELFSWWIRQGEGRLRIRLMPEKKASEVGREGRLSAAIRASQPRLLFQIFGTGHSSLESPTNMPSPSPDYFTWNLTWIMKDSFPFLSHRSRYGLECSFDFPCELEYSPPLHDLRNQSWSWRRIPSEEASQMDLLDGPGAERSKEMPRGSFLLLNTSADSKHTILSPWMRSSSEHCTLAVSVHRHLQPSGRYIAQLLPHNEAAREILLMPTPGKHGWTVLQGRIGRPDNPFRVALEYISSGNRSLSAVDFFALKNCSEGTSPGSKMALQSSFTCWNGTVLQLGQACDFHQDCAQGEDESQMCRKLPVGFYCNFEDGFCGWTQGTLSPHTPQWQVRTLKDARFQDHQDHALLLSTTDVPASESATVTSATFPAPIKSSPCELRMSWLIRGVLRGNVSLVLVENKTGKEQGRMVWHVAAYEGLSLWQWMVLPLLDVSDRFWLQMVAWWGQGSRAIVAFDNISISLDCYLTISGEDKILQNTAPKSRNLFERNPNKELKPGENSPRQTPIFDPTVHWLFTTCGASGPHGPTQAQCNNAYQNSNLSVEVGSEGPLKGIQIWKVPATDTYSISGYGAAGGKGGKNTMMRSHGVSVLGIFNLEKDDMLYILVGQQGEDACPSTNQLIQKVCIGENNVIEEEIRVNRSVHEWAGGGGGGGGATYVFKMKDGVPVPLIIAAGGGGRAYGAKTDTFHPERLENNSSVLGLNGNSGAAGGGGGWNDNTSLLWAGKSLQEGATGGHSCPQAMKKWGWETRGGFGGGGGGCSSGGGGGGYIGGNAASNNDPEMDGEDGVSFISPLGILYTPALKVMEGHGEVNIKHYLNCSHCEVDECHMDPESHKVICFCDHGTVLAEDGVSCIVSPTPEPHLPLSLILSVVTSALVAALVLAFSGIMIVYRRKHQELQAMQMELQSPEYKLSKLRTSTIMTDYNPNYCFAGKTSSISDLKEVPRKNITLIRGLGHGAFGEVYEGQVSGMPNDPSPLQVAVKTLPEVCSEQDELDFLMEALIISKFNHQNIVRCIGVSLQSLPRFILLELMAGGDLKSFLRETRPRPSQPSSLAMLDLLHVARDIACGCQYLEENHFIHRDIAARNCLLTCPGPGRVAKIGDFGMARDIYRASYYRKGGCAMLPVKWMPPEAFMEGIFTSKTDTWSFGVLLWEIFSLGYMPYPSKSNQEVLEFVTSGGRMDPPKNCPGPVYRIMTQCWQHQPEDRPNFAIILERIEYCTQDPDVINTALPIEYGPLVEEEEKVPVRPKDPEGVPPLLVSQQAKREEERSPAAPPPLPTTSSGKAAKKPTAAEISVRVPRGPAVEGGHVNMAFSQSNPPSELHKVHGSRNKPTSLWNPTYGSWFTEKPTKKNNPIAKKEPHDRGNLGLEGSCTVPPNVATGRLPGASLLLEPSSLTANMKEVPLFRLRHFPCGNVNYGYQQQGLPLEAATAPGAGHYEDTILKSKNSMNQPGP
T2 sequence (P49841 whole entry): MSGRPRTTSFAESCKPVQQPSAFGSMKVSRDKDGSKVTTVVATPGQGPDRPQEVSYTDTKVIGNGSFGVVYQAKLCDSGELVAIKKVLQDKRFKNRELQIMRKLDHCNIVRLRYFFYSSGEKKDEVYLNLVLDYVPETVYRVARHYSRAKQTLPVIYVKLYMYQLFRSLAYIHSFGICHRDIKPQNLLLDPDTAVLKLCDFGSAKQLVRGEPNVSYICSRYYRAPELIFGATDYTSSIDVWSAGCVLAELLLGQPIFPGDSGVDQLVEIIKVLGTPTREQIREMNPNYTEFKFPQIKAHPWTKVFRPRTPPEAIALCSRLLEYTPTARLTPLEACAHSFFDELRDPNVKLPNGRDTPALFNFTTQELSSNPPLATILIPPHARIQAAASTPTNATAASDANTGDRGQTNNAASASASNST
DHODH enzyme, sequence (Q02127 whole entry): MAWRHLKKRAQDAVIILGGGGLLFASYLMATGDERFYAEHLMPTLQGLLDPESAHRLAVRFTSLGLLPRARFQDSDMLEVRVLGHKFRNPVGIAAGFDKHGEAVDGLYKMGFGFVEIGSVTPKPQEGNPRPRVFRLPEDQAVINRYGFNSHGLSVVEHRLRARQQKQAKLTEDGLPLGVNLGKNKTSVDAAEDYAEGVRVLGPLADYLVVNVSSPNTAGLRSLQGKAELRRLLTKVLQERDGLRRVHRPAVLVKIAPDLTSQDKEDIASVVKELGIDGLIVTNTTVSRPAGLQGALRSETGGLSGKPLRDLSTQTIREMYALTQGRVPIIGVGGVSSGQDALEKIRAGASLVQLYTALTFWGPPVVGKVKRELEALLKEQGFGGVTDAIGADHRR

## CCn1c(CO)nn(-c2cc(O[C@@H](C)C(F)(F)F)c(/C(F)=C/c3ncccc3Cl)cc2F)c1=O [Compound 5]
[1]; IV 0.2 mg/kg
  Tlast: 24.0 h
[1]; PO 1 mg/kg
  F: 95.8%
  Tlast: 24.0 h
[1]; [6]
  AUC(0-inf): 1.51 µM·h
  AUC(0-t): 1.43 µM·h
  clearance: 0.263 L/h/kg
  half-life: 5.83 h
  MRT last: 6.24 h
[1]; female, Balb/c, mouse, plasma, IV 0.2 mg/kg, read-out: VdSS
  Vd: 2.02 L/kg
[1]; [7]
  AUC(0-inf): 7.21 µM·h
  AUC(0-t): 6.87 µM·h
  Tmax: 2 h
  half-life: 5.36 h
  MRT last: 6.99 h
[1]; female, Balb/c, mouse, IV 0.2 mg/kg, plasma
  C0: 0.354 µM
[1]; female, Balb/c, mouse, PO 1 mg/kg, plasma
  Cmax: 0.794 µM
[2]
  Papp A→B at 150 min, 2 μM: 133 nm/s
  Papp B→A at 150 min, 2 μM: 182 nm/s
  Papp at 150 min, 2 μM: > 55 nm/s
  efflux ratio at 150 min, 2 μM: 1.37
[3]
  IC50: 3.5 nM
[4]
  remaining activity at 1 µM: 94%
[5]
  remaining activity at 1 µM: 126%
